Consider one molecule from publication PMC5218480 (PLoS ONE, 2017).

The test system of this assay is MV-4-11 cells. Briefly: Gene expression microarray analysis (Affymetrix PrimeView) and GSEA. In kind it is cell-based, human. Details: RFU PODN (11730768_x_at) / Fold change /veh PODN (11730768_x_at) / RFU LINC00158 (11744669_a_at) / Fold change /veh LINC00158 (11744669_a_at) / RFU DUSP10 (11751237_a_at) / Fold change /veh DUSP10 (11751237_a_at) / RFU ID3 (11757404_x_at) / Fold change /veh ID3 (11757404_x_at) / RFU PLEKHG5 (11737974_s_at) / Fold change /veh PLEKHG5 (11737974_s_at) / RFU LRRC4B (11730491_at) / Fold change /veh LRRC4B (11730491_at) / RFU GIMAP4 (11747438_a_at) / Fold change /veh GIMAP4 (11747438_a_at) / RFU KRT8 (11758183_x_at) / Fold change /veh KRT8 (11758183_x_at) / RFU CNN1 (11734310_a_at) / Fold change /veh CNN1 (11734310_a_at) / RFU VPS37D (11726825_at) / Fold change /veh VPS37D (11726825_at) / RFU C10orf10 (11716522_x_at) / Fold change /veh C10orf10 (11716522_x_at) / RFU KIR2DL2 /// KIR2DL4 /// KIR2DL5A /// KIR2DL5B /// KIR2DS1 /// KIR2DS2 /// KIR2DS3 /// KIR2DS4 /// KIR3DL3 /// KIR3DL3 /// KIR3DS1 (11738374_at) / Fold change /veh KIR2DL2 /// KIR2DL4 /// KIR2DL5A /// KIR2DL5B /// KIR2DS1 /// KIR2DS2 /// KIR2DS3 /// KIR2DS4 /// KIR3DL3 /// KIR3DL3 /// KIR3DS1 (11738374_at) / RFU C1QL1 (11718748_at) / Fold change /veh C1QL1 (11718748_at) / RFU TMPRSS4 (11747572_a_at) / Fold change /veh TMPRSS4 (11747572_a_at) / RFU HAMP (11756126_x_at) / Fold change /veh HAMP (11756126_x_at) / RFU RNFT2 (11725882_a_at) / Fold change /veh RNFT2 (11725882_a_at) / RFU NR4A2 (11747474_a_at) / Fold change /veh NR4A2 (11747474_a_at) / RFU ABCC12 (11746883_a_at) / Fold change /veh ABCC12 (11746883_a_at) / RFU TMEM136 (11760407_x_at) / Fold change /veh TMEM136 (11760407_x_at) / RFU CLDN22 /// WWC2 (11732394_at) / Fold change /veh CLDN22 /// WWC2 (11732394_at) / RFU HLA-DPB1 (11760878_x_at) / Fold change /veh HLA-DPB1 (11760878_x_at) / RFU SPINT1 (11716480_a_at) / Fold change /veh SPINT1 (11716480_a_at) / RFU GAP43 (11754022_s_at) / Fold change /veh GAP43 (11754022_s_at) / RFU A4GNT (11735810_at) / Fold change /veh A4GNT (11735810_at) / RFU PRB3 (11715151_x_at) / Fold change /veh PRB3 (11715151_x_at) / RFU TUBB4B (11761932_at) / Fold change /veh TUBB4B (11761932_at) / RFU CAPN14 (11732068_a_at) / Fold change /veh CAPN14 (11732068_a_at) / RFU TMCC2 (11721928_a_at) / Fold change /veh TMCC2 (11721928_a_at) / RFU IRGQ (11745062_a_at) / Fold change /veh IRGQ (11745062_a_at) / RFU FAM174B (11720279_a_at) / Fold change /veh FAM174B (11720279_a_at) / RFU TMPRSS4 (11748680_a_at) / Fold change /veh TMPRSS4 (11748680_a_at) / RFU FAM212B (11763350_a_at) / Fold change /veh FAM212B (11763350_a_at) / RFU PLEKHG5 (11743358_a_at) / Fold change /veh PLEKHG5 (11743358_a_at) / RFU ZSCAN30 (11745921_a_at) / Fold change /veh ZSCAN30 (11745921_a_at) / RFU CMKLR1 (11741424_a_at) / Fold change /veh CMKLR1 (11741424_a_at) / RFU LOC101060620 /// MAPK8IP1 (11723275_at) / Fold change /veh LOC101060620 /// MAPK8IP1 (11723275_at) / RFU SPTSSB (11747773_x_at) / Fold change /veh SPTSSB (11747773_x_at) / RFU PRSS12 (11739890_at) / Fold change /veh PRSS12 (11739890_at) / RFU BIN1 (11741810_x_at) / Fold change /veh BIN1 (11741810_x_at) / RFU WNT11 (11732464_a_at) / Fold change /veh WNT11 (11732464_a_at) / RFU C10orf10 (11716521_a_at) / Fold change /veh C10orf10 (11716521_a_at) / RFU C5orf56 (11738089_at) / Fold change /veh C5orf56 (11738089_at) / RFU CYB561 (11721691_x_at) / Fold change /veh CYB561 (11721691_x_at) / RFU ANKRD19P (11752326_a_at) / Fold change /veh ANKRD19P (11752326_a_at) / RFU OR2T12 /// OR2T33 /// OR2T8 (11738714_s_at) / Fold change /veh OR2T12 /// OR2T33 /// OR2T8 (11738714_s_at) / RFU VCAN (11748164_a_at) / Fold change /veh VCAN (11748164_a_at) / RFU JSRP1 (11732532_at) / Fold change /veh JSRP1 (11732532_at) / RFU KRTAP10-11 (11738290_x_at) / Fold change /veh KRTAP10-11 (11738290_x_at) / RFU MYO3A (11730013_a_at) / Fold change /veh MYO3A (11730013_a_at) / RFU EBF3 (11725865_a_at) / Fold change /veh EBF3 (11725865_a_at) / RFU CAMK2N1 (11719241_x_at) / Fold change /veh CAMK2N1 (11719241_x_at) / RFU C5orf56 (11738088_a_at) / Fold change /veh C5orf56 (11738088_a_at) / RFU OLFML3 (11715873_a_at) / Fold change /veh OLFML3 (11715873_a_at) / RFU LOC100653217 /// NTM (11731650_a_at) / Fold change /veh LOC100653217 /// NTM (11731650_a_at) / RFU MAPK11 (11762145_a_at) / Fold change /veh MAPK11 (11762145_a_at) / RFU FIZ1 (11724087_x_at) / Fold change /veh FIZ1 (11724087_x_at) / RFU OASL (11726364_x_at) / Fold change /veh OASL (11726364_x_at) / RFU SOX15 (11748057_x_at) / Fold change /veh SOX15 (11748057_x_at) / RFU CD79A (11719716_a_at) / Fold change /veh CD79A (11719716_a_at) / RFU HIST1H1D (11736915_at) / Fold change /veh HIST1H1D (11736915_at) / RFU CASKIN2 (11723855_a_at) / Fold change /veh CASKIN2 (11723855_a_at) / RFU LOC730098 (11760151_x_at) / Fold change /veh LOC730098 (11760151_x_at) / RFU OR4N2 (11742367_at) / Fold change /veh OR4N2 (11742367_at) / RFU PRRT2 (11749266_a_at) / Fold change /veh PRRT2 (11749266_a_at) / RFU SNX32 (11753110_a_at) / Fold change /veh SNX32 (11753110_a_at) / RFU CDHR5 (11726645_a_at) / Fold change /veh CDHR5 (11726645_a_at) / RFU RCAN1 (11760418_a_at) / Fold change /veh RCAN1 (11760418_a_at) / RFU FAM167A (11723789_a_at) / Fold change /veh FAM167A (11723789_a_at) / RFU FAM26E (11764081_at) / Fold change /veh FAM26E (11764081_at) / RFU ISYNA1 (11749810_s_at) / Fold change /veh ISYNA1 (11749810_s_at) / RFU ACY1 (11761880_at) / Fold change /veh ACY1 (11761880_at) / RFU 11764098_at / Fold change /veh 11764098_at / RFU SAMD14 (11745864_x_at) / Fold change /veh SAMD14 (11745864_x_at) / RFU NPB (11741838_a_at) / Fold change /veh NPB (11741838_a_at) / RFU TMPRSS6 (11731388_a_at) / Fold change /veh TMPRSS6 (11731388_a_at) / RFU KRTAP10-2 (11738614_at) / Fold change /veh KRTAP10-2 (11738614_at) / RFU ARHGAP8 /// PRR5-ARHGAP8 (11727945_x_at) / Fold change /veh ARHGAP8 /// PRR5-ARHGAP8 (11727945_x_at) / RFU KRTAP5-7 /// NADSYN1 (11734609_at) / Fold change /veh KRTAP5-7 /// NADSYN1 (11734609_at) / RFU RASL12 (11751679_a_at) / Fold change /veh RASL12 (11751679_a_at) / RFU CDKN2B (11736163_a_at) / Fold change /veh CDKN2B (11736163_a_at) / RFU PRF1 (11729649_at) / Fold change /veh PRF1 (11729649_at) / RFU, ZNF638 /// ZNF638-IT1 / Fold change vs veh, ZNF638 /// ZNF638-IT1 / RFU, PANK3 / Fold change vs veh, PANK3 / RFU, SH3YL1 / Fold change vs veh, SH3YL1 / RFU, ZEB2 / Fold change vs veh, ZEB2 / RFU, NRIP1 / Fold change vs veh, NRIP1 / RFU, PTTG1IP / Fold change vs veh, PTTG1IP / RFU, CAPN2 / Fold change vs veh, CAPN2 / RFU, MED14 / Fold change vs veh, MED14 / RFU, SNORA58 / Fold change vs veh, SNORA58 / RFU, C1orf63 / Fold change vs veh, C1orf63 / RFU, LRRFIP1 / Fold change vs veh, LRRFIP1 / RFU, NDUFAF7 / Fold change vs veh, NDUFAF7 / RFU, SLC12A2 / Fold change vs veh, SLC12A2 / RFU, IBTK / Fold change vs veh, IBTK / RFU, ESF1 / Fold change vs veh, ESF1 / Fold change vs veh, TMEM50B / RFU, TAOK1 / Fold change vs veh, TAOK1 / RFU, ACBD3 / Fold change vs veh, ACBD3 / RFU, TMA16 / Fold change vs veh, TMA16 / RFU, RWDD3 / Fold change vs veh, RWDD3 / RFU, BCAT1 / Fold change vs veh, BCAT1 / RFU, EDEM3 / Fold change vs veh, EDEM3 / RFU, TMEM33 / Fold change vs veh, TMEM33 / RFU, WDR75 / Fold change vs veh, WDR75 / RFU, AHCTF1 / Fold change vs veh, AHCTF1 / RFU, TFRC / Fold change vs veh, TFRC / RFU, ZDHHC17 / Fold change vs veh, ZDHHC17 / RFU, NOM1 / Fold change vs veh, NOM1 / RFU, ARL8B / Fold change vs veh, ARL8B / RFU, ZBTB11 / Fold change vs veh, ZBTB11 / RFU, TAMM41 / Fold change vs veh, TAMM41 / RFU, KIAA1704 /// LOC100996395 / Fold change vs veh, KIAA1704 /// LOC100996395 / RFU, ING1 / Fold change vs veh, ING1 / RFU, TRMT61B / Fold change vs veh, TRMT61B / RFU, FUBP3 / Fold change vs veh, FUBP3 / RFU, TP53 / Fold change vs veh, TP53 / RFU, TNKS2 / Fold change vs veh, TNKS2 / RFU, ZFP14 / Fold change vs veh, ZFP14 / RFU, ACTR2 / Fold change vs veh, ACTR2 / RFU, PPP3R1 / Fold change vs veh, PPP3R1 / RFU, PIK3R1 / Fold change vs veh, PIK3R1 / RFU, HNRNPA1 / Fold change vs veh, HNRNPA1 / RFU, RNF170 / Fold change vs veh, RNF170 / RFU, ZNF28 / Fold change vs veh, ZNF28 / RFU, RNGTT / Fold change vs veh, RNGTT / RFU, OGT / Fold change vs veh, OGT / RFU, BRD1 / Fold change vs veh, BRD1 / RFU, MARS / Fold change vs veh, MARS / RFU, ZNF655 / Fold change vs veh, ZNF655 / RFU, FAHD1 / Fold change vs veh, FAHD1 / RFU, BDP1 / Fold change vs veh, BDP1 / RFU, LRRCC1 / Fold change vs veh, LRRCC1 / RFU, ARID1A / Fold change vs veh, ARID1A / RFU, ZNF146 / Fold change vs veh, ZNF146 / RFU, ZNF330 / Fold change vs veh, ZNF330 / RFU, GPN3 / Fold change vs veh, GPN3 / RFU, C9orf123 / Fold change vs veh, C9orf123 / RFU, N4BP2L2 / Fold change vs veh, N4BP2L2 / RFU, ARFIP1 / Fold change vs veh, ARFIP1 / RFU, FAM179B / Fold change vs veh, FAM179B / RFU, BCL10 / Fold change vs veh, BCL10 / RFU, UHRF1BP1L / Fold change vs veh, UHRF1BP1L / RFU, BET1 / Fold change vs veh, BET1 / RFU, CNOT2 / Fold change vs veh, CNOT2 / RFU, ZNF268 / Fold change vs veh, ZNF268 / Fold change vs veh, ZNF507 / RFU, DGCR2 / Fold change vs veh, DGCR2 / RFU, WDSUB1 / Fold change vs veh, WDSUB1 / Fold change vs veh, HSP90B1 /// MIR3652 / RFU, ADSS / Fold change vs veh, ADSS / RFU, GK / Fold change vs veh, GK / RFU, ZNF148 / Fold change vs veh, ZNF148 / RFU, TAF9 / Fold change vs veh, TAF9 / RFU, SLC1A5 / Fold change vs veh, SLC1A5 / RFU, SLMO2 / Fold change vs veh, SLMO2 / RFU, ABCC4 / Fold change vs veh, ABCC4 / RFU, LOC101060439 /// RAP1B / Fold change vs veh, LOC101060439 /// RAP1B / RFU, RFX7 / Fold change vs veh, RFX7 / RFU, GTPBP10 / Fold change vs veh, GTPBP10 / RFU, CNEP1R1 / Fold change vs veh, CNEP1R1 / RFU, BIVM-ERCC5 /// ERCC5 / Fold change vs veh, BIVM-ERCC5 /// ERCC5 / RFU, ILF3 / Fold change vs veh, ILF3 / RFU 11762660_at / Fold change /veh 11762660_at / RFU VCAN (11757783_s_at) / Fold change /veh VCAN (11757783_s_at) / RFU DDX43 (11728927_at) / Fold change /veh DDX43 (11728927_at) / RFU KRT8 (11758188_x_at) / Fold change /veh KRT8 (11758188_x_at) / RFU NKD1 (11759106_at) / Fold change /veh NKD1 (11759106_at) / RFU SRD5A1 (11742802_a_at) / Fold change /veh SRD5A1 (11742802_a_at) / RFU TPSAB1 /// TPSB2 (11721975_s_at) / Fold change /veh TPSAB1 /// TPSB2 (11721975_s_at) / RFU GSTM3 (11746129_a_at) / Fold change /veh GSTM3 (11746129_a_at) / RFU IL23R (11737362_x_at) / Fold change /veh IL23R (11737362_x_at) / RFU TMEM51 (11727254_a_at) / Fold change /veh TMEM51 (11727254_a_at) / RFU PIWIL2 (11732686_x_at) / Fold change /veh PIWIL2 (11732686_x_at) / RFU ORM1 (11744905_x_at) / Fold change /veh ORM1 (11744905_x_at) / RFU CCDC152 (11743942_at) / Fold change /veh CCDC152 (11743942_at) / RFU ECM1 (11717891_a_at) / Fold change /veh ECM1 (11717891_a_at) / RFU IL23R (11748794_a_at) / Fold change /veh IL23R (11748794_a_at) / RFU TNFAIP8L3 (11732012_x_at) / Fold change /veh TNFAIP8L3 (11732012_x_at) / RFU MBOAT4 (11741988_at) / Fold change /veh MBOAT4 (11741988_at) / RFU 11764193_at / Fold change /veh 11764193_at / RFU TMEM53 (11763286_at) / Fold change /veh TMEM53 (11763286_at) / RFU MAGEB2 (11727129_at) / Fold change /veh MAGEB2 (11727129_at) / RFU TMEM200A (11744735_a_at) / Fold change /veh TMEM200A (11744735_a_at) / RFU CCDC152 (11751479_a_at) / Fold change /veh CCDC152 (11751479_a_at) / RFU FAM211A (11726209_a_at) / Fold change /veh FAM211A (11726209_a_at) / RFU RGS16 (11746705_a_at) / Fold change /veh RGS16 (11746705_a_at) / RFU VCAN (11755009_s_at) / Fold change /veh VCAN (11755009_s_at) / RFU RHOB (11743442_s_at) / Fold change /veh RHOB (11743442_s_at) / RFU RGS16 (11720943_a_at) / Fold change /veh RGS16 (11720943_a_at) / RFU RGS16 (11720944_at) / Fold change /veh RGS16 (11720944_at) / RFU, VPS4B / Fold change vs veh, VPS4B / RFU, CREB1 / Fold change vs veh, CREB1 / RFU, DNAJC13 / Fold change vs veh, DNAJC13 / RFU, GNAQ / Fold change vs veh, GNAQ / RFU, CDK5R1 / Fold change vs veh, CDK5R1 / RFU, ZRANB3 / Fold change vs veh, ZRANB3 / RFU, CUL4A / Fold change vs veh, CUL4A / RFU, CCNY / Fold change vs veh, CCNY / RFU, UFL1 / Fold change vs veh, UFL1 / RFU, COG3 / Fold change vs veh, COG3 / RFU, DIAPH2 / Fold change vs veh, DIAPH2 / RFU, SKA2 / Fold change vs veh, SKA2 / RFU, AFF3 / Fold change vs veh, AFF3 / RFU, LMF1 / Fold change vs veh, LMF1 / RFU, IPO11 / Fold change vs veh, IPO11 / RFU, DFFB / Fold change vs veh, DFFB / RFU, FOXP1 / Fold change vs veh, FOXP1 / RFU, CARD8 / Fold change vs veh, CARD8 / RFU, STRN3 / Fold change vs veh, STRN3 / RFU, ADK / Fold change vs veh, ADK / RFU, RASSF2 / Fold change vs veh, RASSF2 / RFU, WIPF1 / Fold change vs veh, WIPF1 / RFU, LARP1B / Fold change vs veh, LARP1B / RFU, RASA1 / Fold change vs veh, RASA1 / RFU, RB1 / Fold change vs veh, RB1 / RFU, PPFIA1 / Fold change vs veh, PPFIA1 / RFU, MAT2A / Fold change vs veh, MAT2A / RFU, CCT5 / Fold change vs veh, CCT5 / RFU, WDR92 / Fold change vs veh, WDR92 / RFU, CUX1 / Fold change vs veh, CUX1 / RFU, TTC7A / Fold change vs veh, TTC7A / RFU, TMEM135 / Fold change vs veh, TMEM135 / RFU, DEPTOR / Fold change vs veh, DEPTOR / RFU, CPM / Fold change vs veh, CPM / RFU, DNAJB6 / Fold change vs veh, DNAJB6 / RFU, CACNA2D3 / Fold change vs veh, CACNA2D3 / RFU, DTX4 / Fold change vs veh, DTX4 / RFU, TFCP2 / Fold change vs veh, TFCP2 / RFU, GMCL1 /// GMCL1P1 / Fold change vs veh, GMCL1 /// GMCL1P1 / RFU, AEBP2 / Fold change vs veh, AEBP2 / RFU, SNHG1 /// SNORD22 /// SNORD25 /// SNORD26 /// SNORD27 /// SNORD28 /// SNORD29 /// SNORD31 / Fold change vs veh, SNHG1 /// SNORD22 /// SNORD25 /// SNORD26 /// SNORD27 /// SNORD28 /// SNORD29 /// SNORD31 / Fold change (Aza/veh), C12orf56 (ProbeSet 11735607_a_at) / Fold change (ACY-1035/veh), C12orf56 (ProbeSet 11735607_a_at) / Fold change (Aza/veh), FGFR1OP (ProbeSet 11751329_s_at) / Fold change (ACY-1035/veh), FGFR1OP (ProbeSet 11751329_s_at) / Fold change (Aza/veh), VPS36 (ProbeSet 11739960_a_at) / Fold change (ACY-1035/veh), VPS36 (ProbeSet 11739960_a_at) / RFU SYPL1 (11715823_x_at) / Fold change /veh SYPL1 (11715823_x_at) / RFU IGFBP7 (11715501_s_at) / Fold change /veh IGFBP7 (11715501_s_at) / RFU REEP3 (11722064_at) / Fold change /veh REEP3 (11722064_at) / RFU IGLL1 (11728026_x_at) / Fold change /veh IGLL1 (11728026_x_at): dose or concentration left out as unconfirmed. The settings on record: MV-4-11 cells, 48 hours.

Turning to `Nc1ncn([C@@H]2O[C@H](CO)[C@@H](O)[C@H]2O)c(=O)n1` [azacitidine], the “Fold change /veh PRSS12 (11739890_at)” value worked out at 0.94.
